Assays:
ALOMY = assay: Herbicidal post-emergence action; assay type: in vivo; settings: 80 g/ha, visual assessment after about three weeks, 100% = plants have died
Description: (§1) 2. Herbicidal Post-Emergence Action
(§2) • Seeds of monocotylidonous and dicotylidonous weed and crop plants are placed in sandy loam in wood fibre pots, covered with soil and cultivated in a greenhouse under good growth conditions. Two to three weeks after sowing, the test plants are treated at the one-leaf stage. The test compounds, formulated as wettable powders (WP), are then with a water application rate of 600 l/ha (converted), with 0.2% of wetting agent added, sprayed onto the green parts of the plants in different amounts. After the test plants have been kept in the greenhouse under optimum growth conditions for about three weeks, the effect of the preparations is assessed visually in comparison to untreated controls (herbicidal effect in percent: 100% effect=the plants have died, 0% effect=like control plants). Post-Emergence, 80 g/ha

VERPE = assay: Herbicidal post-emergence action; assay type: in vivo; settings: 80 g/ha, visual assessment after about three weeks, 100% = plants have died
Description: as §1, §2

ECHCG = assay: Herbicidal post-emergence action; assay type: in vivo; settings: 80 g/ha, visual assessment after about three weeks, 100% = plants have died
Description: as §1, §2

LOLMU = assay: Herbicidal post-emergence action; assay type: in vivo; settings: 80 g/ha, visual assessment after about three weeks, 100% = plants have died
Description: as §1, §2

SETVI = assay: Herbicidal post-emergence action; assay type: in vivo; settings: visual assessment after about three weeks, 100% = plants have died; for herbicidal effect in percent, SETVI: 80 g/ha; for pest or weed control at 80 g/ha: 504 h, read-out: herbicidal effect in percent, SETVI
Description: as §1, §2

AVEFA = assay: Herbicidal post-emergence action; assay type: in vivo; settings: 80 g/ha, visual assessment after about three weeks, 100% = plants have died
Description: as §1, §2

[1] = tested on: larvae of the mustard beetle (Phaedon cochleariae); assay: Phaedon test (PHAECO spray treatment); assay type: in vivo; settings: application rate of 500 g/ha; Chinese cabbage leaf discs sprayed; after 7 days
Description: Phaedon Test […] Spray Treatment Solvents: 78.0 parts by weight of acetone • • 1.5 parts by weight of dimethylformamide Emulsifier: 0.5 part by weight of alkylaryl polyglycol ether To produce a suitable preparation of active compound, one part by weight of active compound is mixed with the stated amounts of solvents and emulsifier, and the concentrate is diluted with emulsifier-containing water to the desired concentration. Discs of Chinese cabbage leaves (Brassica pekinensis) are sprayed with an active compound preparation of the desired concentration and, after drying, populated with larvae of the mustard beetle (Phaedon cochleariae).

[2] = tested on: green peach aphid (Myzus persicae); assay: Myzus test (MYZUPE spray treatment); assay type: in vivo; settings: application rate of 500 g/ha; Chinese cabbage leaf discs sprayed; after 6 days
Description: Solvents: 78 parts by weight of acetone
• 1.5 parts by weight of dimethylformamide Emulsifier: 0.5 part by weight of alkylaryl polyglycol ether
To produce a suitable preparation of active compound, one part by weight of active compound is mixed with the stated amounts of solvents and emulsifier, and the concentrate is diluted with emulsifier-containing water to the desired concentration.
Discs of Chinese cabbage leaves (Brassica pekinensis) which are infested by all stages of the green peach aphid (Myzus persicae) are sprayed with an active compound preparation of the desired concentration.
After 6 days, the effect in % is determined 100% means that all aphids have been killed; 0% means that none of the aphids have been killed.

[3] = tested on: monocotylidonous and dicotylidonous weed and crop plants; assay: Herbicidal pre-emergence action; assay type: in vivo; settings: 320 g/ha, visual assessment after three weeks, 100% = plants have died; for herbicidal effect in percent, ALOMY: ALOMY = Alopecurus myosuroides; for herbicidal effect in percent, AVEFA: AVEFA = Avena fatua; for herbicidal effect in percent, ECHCG: ECHCG = Echinochloa crus-galli; for herbicidal effect in percent, LOLMU: LOLMU = Lolium multiflorum; for herbicidal effect in percent, SETVI: SETVI = Setaria viridis; for herbicidal effect in percent, VIOTR: VIOTR = Viola tricolor
Excerpt: 1. Herbicidal Pre-Emergence Action
• Seeds of monocotylidonous and dicotylidonous weed and crop plants are placed in sandy loam in wood fibre pots and covered with soil. The test compounds, formulated in the form of wettable powders (WP), are then, as an aqueous suspension with a water application rate of 600 l/ha (converted), with 0.2% of wetting agent added, applied to the surface of the covering soil in different amounts. • After the treatment, the pots are placed in a greenhouse and kept under good growth conditions for the test plants. The visual assessment of the emergence damage on the test plants is carried out after a trial period of three weeks by comparison with the untreated controls (herbicidal effect in percent: 100% effect=the plants have died, 0% effect=like control plants).

POLCO = assay: Herbicidal post-emergence action; assay type: in vivo; settings: 80 g/ha, visual assessment after about three weeks, 100% = plants have died
Description: as §1, §2

SMILES: CCc1cc(C)cc(CC)c1C1C(=O)C2CC(CCC#N)CC2C1=O (mixture of isomers) [I-a-37]
- herbicidal effect in percent, ALOMY (ALOMY): 100%
- herbicidal effect in percent, VERPE (VERPE): 80%
- herbicidal effect in percent, ECHCG (ECHCG): 100%
- herbicidal effect in percent, LOLMU (LOLMU): 100%
- herbicidal effect in percent, SETVI (SETVI): 100%
- herbicidal effect in percent, AVEFA (AVEFA): 100%

SMILES: CCc1cc(C)cc(CC)c1C1C(=O)C2CC(COC(=O)Nc3ccccc3)CC2C1=O (mixture of isomers) [I-a-44]
- effect in % (beetle larvae killed) [1]: 100%

SMILES: CCc1cc(C)cc(CC)c1C1C(=O)C2CC(COC(=O)NCc3ccccc3)CC2C1=O (mixture of isomers) [I-a-47]
- effect in % (beetle larvae killed) [1]: 100%

SMILES: CCc1cc(C)cc(CC)c1C1=C(OCc2ccccc2)C2CC(C=CC#N)CC2C1=O (mixture of isomers) [I-a-59]
- effect in % (aphids killed) [2]: 100%

SMILES: CCc1cc(C)cc(CC)c1C1=C(OC(=O)C(C)(C)C)C2CC(C(OC)OC)CC2C1=O (mixture of isomers) [I-b-5]
- herbicidal effect in percent, ALOMY (ALOMY): 100%
- herbicidal effect in percent, ECHCG (ECHCG): 100%
- herbicidal effect in percent, LOLMU (LOLMU): 100%
- herbicidal effect in percent, SETVI (SETVI): 100%
- herbicidal effect in percent, AVEFA (AVEFA): 100%
- herbicidal effect in percent, ALOMY [3]: 100%
- herbicidal effect in percent, AVEFA [3]: 100%
- herbicidal effect in percent, ECHCG [3]: 100%
- herbicidal effect in percent, LOLMU [3]: 100%
- herbicidal effect in percent, SETVI [3]: 90%

SMILES: CCOC(=O)OC1=C(c2c(CC)cc(C)cc2CC)C(=O)C2CC(C=CC#N)CC12 (mixture of isomers) [I-c-22]
- effect in % (aphids killed) [2]: 100%
- herbicidal effect in percent, ALOMY (ALOMY): 80%
- herbicidal effect in percent, VERPE (VERPE): 90%
- herbicidal effect in percent, ECHCG (ECHCG): 100%
- herbicidal effect in percent, SETVI (SETVI): 100%
- herbicidal effect in percent, AVEFA (AVEFA): 100%

SMILES: C=C1CC2C(=O)C(c3c(CC)cc(C)cc3CC)=C(OCc3ccccc3)C2C1 (stereo not drawn) [I-a-0, 3-(Benzyloxy)-2-(2,6-diethyl-4-methylphenyl)-5-methylene-4,5,6,6a-tetrahydropentalen-1(3aH)-one]
- melting point: 87 to 88 °C

SMILES: CCc1cc(C)cc(CC)c1C1C(=O)C2CC(C#N)CC2C1=O (stereo not drawn) [I-a-4, 5-(2,6-Diethyl-4-methylphenyl)-4,6-dioxooctahydropentalene-2-carbonitrile]
- herbicidal effect in percent, ALOMY (ALOMY): 50%
- herbicidal effect in percent, ECHCG (ECHCG): 100%
- herbicidal effect in percent, LOLMU (LOLMU): 60%
- pest or weed control at 80 g/ha (SETVI): 100%
- herbicidal effect in percent, AVEFA (AVEFA): 90%
- herbicidal effect in percent, ECHCG [3]: 100%
- herbicidal effect in percent, SETVI [3]: 90%

SMILES: CCc1cc(C)cc(CC)c1C1C(=O)C2CC(C3OCCCO3)CC2C1=O (stereo not drawn) [I-a-5, 2-(2,6-Diethyl-4-methylphenyl)-5-(1,3-dioxan-2-yl)tetrahydropentalene-1,3(2H,3aH)-dione]
- herbicidal effect in percent, ALOMY (ALOMY): 100%
- herbicidal effect in percent, ECHCG (ECHCG): 100%
- herbicidal effect in percent, LOLMU (LOLMU): 100%
- pest or weed control at 80 g/ha (SETVI): 100%
- herbicidal effect in percent, AVEFA (AVEFA): 100%
- herbicidal effect in percent, ALOMY [3]: 100%
- herbicidal effect in percent, AVEFA [3]: 90%
- herbicidal effect in percent, LOLMU [3]: 100%
- herbicidal effect in percent, SETVI [3]: 90%

SMILES: CCc1cc(C)cc(CC)c1C1C(=O)C2CC(CO)CC2C1=O (stereo not drawn) [I-a-7]
- herbicidal effect in percent, ALOMY (ALOMY): 100%
- herbicidal effect in percent, ECHCG (ECHCG): 100%
- herbicidal effect in percent, LOLMU (LOLMU): 100%
- herbicidal effect in percent, SETVI (SETVI): 80%
- herbicidal effect in percent, AVEFA (AVEFA): 70%
- herbicidal effect in percent, AVEFA [3]: 80%
- herbicidal effect in percent, ECHCG [3]: 100%
- herbicidal effect in percent, LOLMU [3]: 100%

SMILES: CCc1cc(C)cc(CC)c1C1C(=O)C2CC(C(=O)OC)CC2C1=O (stereo not drawn) [I-a-9]
- herbicidal effect in percent, ALOMY (ALOMY): 100%
- herbicidal effect in percent, ECHCG (ECHCG): 100%
- herbicidal effect in percent, LOLMU (LOLMU): 100%
- herbicidal effect in percent, SETVI (SETVI): 100%
- herbicidal effect in percent, AVEFA (AVEFA): 90%
- herbicidal effect in percent, ALOMY [3]: 100%
- herbicidal effect in percent, AVEFA [3]: 80%
- herbicidal effect in percent, ECHCG [3]: 100%
- herbicidal effect in percent, LOLMU [3]: 100%
- herbicidal effect in percent, SETVI [3]: 90%

SMILES: CCc1cc(C)cc(CC)c1C1C(=O)C2CC(C3OCCO3)CC2C1=O (stereo not drawn) [I-a-10]
- herbicidal effect in percent, ALOMY (ALOMY): 100%
- herbicidal effect in percent, ECHCG (ECHCG): 100%
- herbicidal effect in percent, LOLMU (LOLMU): 100%
- herbicidal effect in percent, SETVI (SETVI): 100%
- herbicidal effect in percent, AVEFA (AVEFA): 100%
- herbicidal effect in percent, ALOMY [3]: 100%
- herbicidal effect in percent, AVEFA [3]: 90%
- herbicidal effect in percent, ECHCG [3]: 100%
- herbicidal effect in percent, LOLMU [3]: 100%
- herbicidal effect in percent, SETVI [3]: 100%
- herbicidal effect in percent, VIOTR [3]: 90%

SMILES: CCc1cc(C)cc(CC)c1C1=C(O)C2CC(C=NOC)CC2C1=O (stereo not drawn) [I-a-13, 5-(2,6-diethyl-4-methylphenyl)-6-hydroxy-4-oxo-1,2,3,3a,4,6a-hexahydropentalene-2-carbaldehyde O-methyloxime]
- herbicidal effect in percent, ALOMY (ALOMY): 100%
- herbicidal effect in percent, ECHCG (ECHCG): 100%
- herbicidal effect in percent, LOLMU (LOLMU): 100%
- pest or weed control at 80 g/ha (SETVI): 100%
- herbicidal effect in percent, AVEFA (AVEFA): 100%
- herbicidal effect in percent, AVEFA [3]: 80%
- herbicidal effect in percent, LOLMU [3]: 100%
- herbicidal effect in percent, STEME ([3]; STEME = Stellaria media): 100%
- herbicidal effect in percent, VERPE ([3]; VERPE = Veronica persica): 90%
- herbicidal effect in percent, VIOTR [3]: 100%

SMILES: CCc1cc(C)cc(CC)c1C1C(=O)C2CC(OC)CC2C1=O (stereo not drawn) [I-a-22]
- herbicidal effect in percent, ALOMY (ALOMY): 100%
- herbicidal effect in percent, ECHCG (ECHCG): 100%
- herbicidal effect in percent, LOLMU (LOLMU): 100%
- herbicidal effect in percent, SETVI (SETVI): 100%
- herbicidal effect in percent, AVEFA (AVEFA): 100%
- herbicidal effect in percent, ALOMY [3]: 100%
- herbicidal effect in percent, AVEFA [3]: 90%
- herbicidal effect in percent, ECHCG [3]: 100%
- herbicidal effect in percent, LOLMU [3]: 100%
- herbicidal effect in percent, SETVI [3]: 100%

SMILES: CCc1cc(C)cc(CC)c1C1C(=O)C2CC(O)CC2C1=O (stereo not drawn) [I-a-23]
- herbicidal effect in percent, ALOMY (ALOMY): 70%
- herbicidal effect in percent, ECHCG (ECHCG): 100%
- herbicidal effect in percent, LOLMU (LOLMU): 90%
- herbicidal effect in percent, SETVI (SETVI): 100%
- herbicidal effect in percent, AVEFA (AVEFA): 60%
- herbicidal effect in percent, ECHCG [3]: 100%
- herbicidal effect in percent, SETVI [3]: 90%

SMILES: CCc1cc(C)cc(CC)c1C1C(=O)C2CC(COCOC)CC2C1=O (stereo not drawn) [I-a-40, 2-(2,6-diethyl-4-methylphenyl)-5-methoxymethoxymethyltetrahydropentalene-1,3-dione]
- herbicidal effect in percent, POLCO (POLCO): 100%
- herbicidal effect in percent, ALOMY (ALOMY): 100%
- herbicidal effect in percent, LOLMU (LOLMU): 100%
- pest or weed control at 80 g/ha (SETVI): 90%
- herbicidal effect in percent, AVEFA (AVEFA): 90%

SMILES: CCc1cc(C)cc(CC)c1C1=C(OC(=O)C(C)(C)C)C2CC(/C=N/OC)CC2C1=O (stereo not drawn) [I-b-1, 2-(2,6-Diethyl-4-methylphenyl)-5-(methoxyimino)methyl-3-oxo-3,3a,4,5,6,6a-hexahydropentalen-1-yl 2,2-dimethylpropanoate]
- herbicidal effect in percent, ALOMY (ALOMY): 100%
- herbicidal effect in percent, ECHCG (ECHCG): 100%
- herbicidal effect in percent, LOLMU (LOLMU): 100%
- pest or weed control at 80 g/ha (SETVI): 100%
- herbicidal effect in percent, AVEFA (AVEFA): 100%
- herbicidal effect in percent, ALOMY [3]: 100%
- herbicidal effect in percent, AVEFA [3]: 90%
- herbicidal effect in percent, ECHCG [3]: 100%
- herbicidal effect in percent, LOLMU [3]: 100%
- herbicidal effect in percent, SETVI [3]: 100%
- herbicidal effect in percent, VIOTR [3]: 90%
